According to patent publication US6008041A, “Bovine dipeptidylaminopeptidase 1” (Eli Lilly and Company, priority 1997, dated 1999):
Peptide text beside a SMILES is read from it. * marks the point of attachment. pNA = O=[N+]([O-])c1ccc(N*)cc1; βNA = c1ccc2cc(N*)ccc2c1; Cbz = O=C(OCc1ccccc1)*

Columns and labels:
[1] = test system: bDAP 1; experiment: pH dependence of GRpNA cleavage; type: biochemical, bovine; settings: below pH 2.5 or above pH 5
Protocol: Four mM GRpNA was prepared in 50 mM acetic acid, 50 mM glycine buffer, pH 5. HCl or NaOH was used to achieve a variety of pHs, from 5.1 to 2.3. To 180 ul of the above pH buffered substrate was added 5 ul bDAP 1 (49 milliunits/ml final). The rate of increase of absorbance at 410 nm was monitored (using a plate-reader) and the rate of increase was compared with the pH of the reaction solution.

[2] = test system: bDAP 1; experiment: Cleavage of RRBNA / Z-RRBNA (fluorescence); type: biochemical, bovine; settings: for ability of the enzyme to cleave the substrate: 0.25 mM substrate, pH 3.5 or pH 5.0, about 15 milliunit/ml enzyme
Protocol: (§1) About 0.25 mM RRBNA or 0.25 mM Z-RRBNA was prepared in either 100 mM acetic acid, pH 3.5, or 100 mM citrate buffer, pH 5.0. To 2 ml of substrate was added bDAP 1 or bovine DAP-I (about 15 milliunit/ml solution). Rates of cleavage (monitoring fluorescence increase at 410 nm with excitation at 340 nm) were monitored. […] The pH optimum for cleavage of RRBNA was probed by monitoring the rate of RRBNA cleavage using a buffer system consisting of 50 mM acetic acid and 50 mM citrate. Various pHs were achieved using HCl or NaOH and 1.5 ml volumes were made 2.0 with 0.5 ml of a 1 mM stock solution of RRBNA (final concentration of about 0.25 mM). bDAP 1 was added (to about 15 mU/ml) and the rates of cleavage were determined.

[3] = target: Bovine DAP-I (Bos taurus, UniProt Q3ZCJ8); experiment: Cleavage of RRBNA / Z-RRBNA (fluorescence); type: biochemical; settings: 0.25 mM substrate, pH 3.5 or pH 5.0, about 15 milliunit/ml enzyme
Chain of Bovine DAP-I (Q3ZCJ8 25-134): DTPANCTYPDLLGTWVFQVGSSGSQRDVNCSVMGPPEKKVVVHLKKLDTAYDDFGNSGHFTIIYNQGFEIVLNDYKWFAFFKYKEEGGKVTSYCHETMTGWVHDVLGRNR
Chain of Bovine DAP-I (Q3ZCJ8 231-463): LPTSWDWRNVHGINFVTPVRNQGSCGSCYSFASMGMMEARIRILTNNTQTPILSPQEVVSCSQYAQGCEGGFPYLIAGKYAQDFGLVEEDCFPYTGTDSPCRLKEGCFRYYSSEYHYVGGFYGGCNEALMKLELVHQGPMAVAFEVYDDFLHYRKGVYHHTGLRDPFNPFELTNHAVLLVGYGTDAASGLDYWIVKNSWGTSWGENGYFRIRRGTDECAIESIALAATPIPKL
Protocol: as §1

[4] = target: bovine spleen DAP-I (Bos taurus, UniProt Q3ZCJ8); experiment: Inhibition of GFpNA cleavage by sulfhydryl modifying agents; type: biochemical; settings: 5 mM inhibitor, 15 minutes at room temperature, pH 7, 100 mM Tris; then diluted 21-fold with 4 mM GFpNA pH 3.5, 37° C., 405 nm; read-out: decrease of rate of cleavage of GFpNA (inhibition)
Chain of bovine spleen DAP-I (Q3ZCJ8 25-134): as the sequence (Q3ZCJ8 25-134) above
Chain of bovine spleen DAP-I (Q3ZCJ8 231-463): as the sequence (Q3ZCJ8 231-463) above
Protocol: (§2) After purification or storage, bDAP 1 enzymatic activity was usually monitored by following the cleavage of the chromogenic substrate GFpNA. Typically the assay was performed by diluting the enzyme at least 11 fold into 1.0 ml of 4 mM GFpNA in 0.05M acetic acid adjusted to pH 3.5. The rate of cleavage of Gly-Phe dipeptide was monitored at 37° C. by measuring the increase in absorbance at 405 nm. One unit of activity leads to a 0.90 OD change per minute under these conditions. Unit/ml estimates can be made assuming an extinction coefficient for free p-nitroanilide (pNA) of 9.9 mM-1 cm-1 at 405 nm.
(§3) The inhibition profile of bDAP 1 toward the substrate GFpNA was compared to that of bovine spleen DAP-I using iodoacetamide and potassium tetrathionate, sulfihydryl modifying agents known to inhibit the activity of bovine spleen DAP-I. Samples of bDAP 1 or bovine spleen DAP-I were incubated for 15 minutes at room temperature in final concentrations of 0, 0.5, 5.0 or 50 mM of either inhibitor at pH 7 in 100 mM Tris buffer. The incubated solutions were then diluted 21-fold with 4 mM GFpNA, pH 3.5. The rate of cleavage was monitored by measuring the increase in absorbance at 405 nm at 37° C. Bovine DAP-I's rate of cleavage of GFpNA was decreased more than 90% by the exposure to 5 mM iodoacetamide and was 95% inhibited by 5 mM potassium tetrathionate.

[5] = test system: bDAP 1; experiment: as above; type: biochemical, bovine; settings: 0.5, 5.0 or 50 mM inhibitor, 15 minutes at room temperature, pH 7; then 4 mM GFpNA pH 3.5, 37° C.
Protocol: as §2, §3

Compound: N=C(N)NCCC[C@H](NC(=O)CN)C(=O)Nc1ccc([N+](=O)[O-])cc1 [GRpNA, Gly-Arg-pNA] (H-Gly-Arg-pNA)
- activity outside the optimum range [1]: little activity

Compound: N=C(N)NCCC[C@H](NC(=O)[C@@H](N)CCCNC(=N)N)C(=O)Nc1ccc2ccccc2c1 [RRBNA, Arg-Arg-β-naphthylamide] (H-Arg-Arg-βNA)
- ability of the enzyme to cleave the substrate [2]: able to effectively cleave
- activity over the pH range probed ([2]; pH 3.5 to pH 5.7): significant activity
- ability of the enzyme to cleave the substrate [3]: unable to cleave

Compound: N=C(N)NCCC[C@H](NC(=O)OCc1ccccc1)C(=O)N[C@@H](CCCNC(=N)N)C(=O)Nc1ccc2ccccc2c1 [Z-RRBNA, benzyloxycarbonyl-RRBNA] (Cbz-Arg-Arg-βNA)
- ability of the enzyme to cleave the substrate [2]: unable to cleave
- ability of the enzyme to cleave the substrate [3]: unable to cleave

Compound: NC(=O)CI [iodoacetamide]
- inhibition at 5000 µM [4]: > 90%
- inhibition of GFpNA cleavage [5]: no evidence of significant inhibition

Compound: O=S(=O)([O-])SSS(=O)(=O)[O-].[K+].[K+] [potassium tetrathionate]
- inhibition of GFpNA cleavage [5]: no evidence of significant inhibition
